Laboratory results published in patent publication US10004701B2, “Methods and compositions for treating infection” (UNIVERSITY OF ROCHESTER, priority 2012, dated 2018).
Counter-ions that a name gives are not always drawn. Like-named read-outs stand apart in the source and are kept apart here.

Experiments:
Assay in all cases: AK assay 384-well format, Prestwick library screening
E. faecium = format: cell-based, Enterococcus faecium; details: for fold induction at 50 µM: Enterococcus faecium, 3 h
[1] = test system: S. aureus strain USA300-0114; format: cell-based, Staphylococcus aureus; details: for fold induction at 50 µM: Staphylococcus aureus, USA300, 3 h
K. pneumoniae = format: cell-based, Klebsiella pneumoniae; details: for fold induction at 50 µM: Klebsiella pneumoniae, 3 h
[2] = test system: A. baumannii strain 98-37-09; format: cell-based, Acinetobacter baumannii; details: for fold induction at 50 µM: Acinetobacter baumannii, 983709, 3 h
E. cloacae = format: cell-based, Enterobacter cloacae; details: for fold induction at 50 µM: Enterobacter cloacae, 3 h
E. coli = format: cell-based, Escherichia coli; details: for fold induction at 50 µM: Escherichia coli, 3 h
P. aeruginosa = format: cell-based, Pseudomonas aeruginosa; details: for fold induction at 50 µM: Pseudomonas aeruginosa, 3 h
[3] = planktonic E. faecium, 50 μM final drug concentration, cutoff for positive-scoring molecules 3-fold increase, read-out: AK-based Prestwick Library Screening Results, E. faecium (increase in extracellular AK activity)
[4] = planktonic K. pneumoniae, 50 μM final drug concentration, cutoff for positive-scoring molecules 3-fold increase, read-out: AK-based Prestwick Library Screening Results, K. pneumoniae (increase in extracellular AK activity)
[5] = planktonic A. baumannii, 50 μM final drug concentration, cutoff for positive-scoring molecules 3-fold increase, read-out: AK-based Prestwick Library Screening Results, A. baumannii (increase in extracellular AK activity)
[6] = planktonic E. cloacae, 50 μM final drug concentration, cutoff for positive-scoring molecules 3-fold increase, read-out: AK-based Prestwick Library Screening Results, E. cloacae (increase in extracellular AK activity)
[7] = planktonic P. aeruginosa, 50 μM final drug concentration, cutoff for positive-scoring molecules 3-fold increase, read-out: AK-based Prestwick Library Screening Results, P. aeruginosa (increase in extracellular AK activity)
[8] = 50 μM final drug concentration, cutoff for positive-scoring molecules 3-fold increase, read-out: AK-based Prestwick Library Screening Results, E. faecium (fold increase in extracellular AK activity)
[9] = 50 μM final drug concentration, cutoff for positive-scoring molecules 3-fold increase, read-out: AK-based Prestwick Library Screening Results, K. pneumoniae (fold increase in extracellular AK activity)
[10] = 50 μM final drug concentration, cutoff for positive-scoring molecules 3-fold increase, read-out: AK-based Prestwick Library Screening Results, A. baumannii (fold increase in extracellular AK activity)
[11] = 50 μM final drug concentration, cutoff for positive-scoring molecules 3-fold increase, read-out: AK-based Prestwick Library Screening Results, E. cloacae (fold increase in extracellular AK activity)
[12] = 50 μM final drug concentration, cutoff for positive-scoring molecules 3-fold increase, read-out: AK-based Prestwick Library Screening Results, E. coli (fold increase in extracellular AK activity)
[13] = 50 μM final drug concentration, cutoff for positive-scoring molecules 3-fold increase, read-out: AK-based Prestwick Library Screening Results, P. aeruginosa (fold increase in extracellular AK activity)

For `C[C@@H]1[C@H](O)[C@@H](C)/C=C/C=C/C=C/C=C/C=C/C=C/C=C/[C@H](O[C@@H]2O[C@H](C)[C@@H](O)[C@H](N)[C@@H]2O)C[C@@H]2O[C@](O)(C[C@@H](O)C[C@@H](O)[C@H](O)CC[C@@H](O)C[C@@H](O)CC(=O)O[C@H]1C)C[C@H](O)[C@H]2C(=O)O` [Amphotericin B], the “AK-based Prestwick Library Screening Results: E. faecium (increase in extracellular AK activity)” value (E. faecium; planktonic E. faecium, 50 μM final drug concentration, 384-well, cutoff for positive-scoring molecules 3-fold increase) was 0.9, the “AK-based Prestwick Library Screening Results: S. aureus (increase in extracellular AK activity)” value ([1]; planktonic S. aureus, 50 μM final drug concentration, 384-well, cutoff for positive-scoring molecules 3-fold increase) was 0.5 and the “AK-based Prestwick Library Screening Results: K. pneumoniae (increase in extracellular AK activity)” value (K. pneumoniae; planktonic K. pneumoniae, 50 μM final drug concentration, 384-well, cutoff for positive-scoring molecules 3-fold increase) was 0.7. For the same compound, the “AK-based Prestwick Library Screening Results: A. baumannii (increase in extracellular AK activity)” value ([2]; planktonic A. baumannii, 50 μM final drug concentration, 384-well, cutoff for positive-scoring molecules 3-fold increase) was 0.5, the “AK-based Prestwick Library Screening Results: E. cloacae (increase in extracellular AK activity)” value (E. cloacae; planktonic E. cloacae, 50 μM final drug concentration, 384-well, cutoff for positive-scoring molecules 3-fold increase) was 0.5 and the “AK-based Prestwick Library Screening Results: E. coli (increase in extracellular AK activity)” value (E. coli; planktonic E. coli, 50 μM final drug concentration, 384-well, cutoff for positive-scoring molecules 3-fold increase) was 0.5. For the same compound, the “AK-based Prestwick Library Screening Results: P. aeruginosa (increase in extracellular AK activity)” value (P. aeruginosa; planktonic P. aeruginosa, 50 μM final drug concentration, 384-well, cutoff for positive-scoring molecules 3-fold increase) was 0.4.

Compound `NNc1nncc2ccccc12` [Hydralazine hydrochloride] has a fold induction at 50 µM (E. faecium; 50 μM final drug concentration, 384-well format, cutoff for positive-scoring molecules 3-fold increase, read-out: AK-based Prestwick Library Screening Results, E. faecium (increase in extracellular AK activity)) of 0.3, a fold induction at 50 µM ([1]; 50 μM final drug concentration, 384-well format, cutoff for positive-scoring molecules 3-fold increase, read-out: AK-based Prestwick Library Screening Results, S. aureus (increase in extracellular AK activity)) of 0.2 and a fold induction at 50 µM ([2]; 50 μM final drug concentration, 384-well format, cutoff for positive-scoring molecules 3-fold increase, read-out: AK-based Prestwick Library Screening Results, A. baumannii (increase in extracellular AK activity)) of 0.1. It also gave a fold induction at 50 µM (E. cloacae; 50 μM final drug concentration, 384-well format, cutoff for positive-scoring molecules 3-fold increase, read-out: AK-based Prestwick Library Screening Results, E. cloacae (increase in extracellular AK activity)) of 0.3.

`O=c1cc(-c2ccc(O)cc2)oc2cc(O)cc(O)c12` [Apigenin] gave a fold induction at 50 µM (E. faecium; [3]) of 0.3, a fold induction at 50 µM (K. pneumoniae; [4]) of 0.2 and a fold induction at 50 µM [2, 5] of 0.2. It also gave a fold induction at 50 µM (E. cloacae; [6]) of 0.5, a fold induction at 50 µM (E. coli; planktonic E. coli, 50 μM final drug concentration, cutoff for positive-scoring molecules 3-fold increase, read-out: AK-based Prestwick Library Screening Results, E. coli (increase in extracellular AK activity)) of 0.2 and a fold induction at 50 µM (P. aeruginosa; [7]) of 0.2.

Compound `O=C(NCCNCC(O)COc1ccc(O)cc1)N1CCOCC1` (centres unmarked) [Xamoterol hemifumarate] has a fold induction at 50 µM (E. faecium; read-out: AK-based Prestwick Library Screening Results, E. faecium (fold increase in extracellular AK activity)) of 1, a fold induction at 50 µM ([1]; read-out: AK-based Prestwick Library Screening Results, S. aureus (fold increase in extracellular AK activity)) of 1.1 and a fold induction at 50 µM (K. pneumoniae; read-out: AK-based Prestwick Library Screening Results, K. pneumoniae (fold increase in extracellular AK activity)) of 0.8. The fold induction at 50 µM ([2]; read-out: AK-based Prestwick Library Screening Results, A. baumannii (fold increase in extracellular AK activity)) was 1, the fold induction at 50 µM (E. cloacae; read-out: AK-based Prestwick Library Screening Results, E. cloacae (fold increase in extracellular AK activity)) was 1.8 and the fold induction at 50 µM (P. aeruginosa; read-out: AK-based Prestwick Library Screening Results, P. aeruginosa (fold increase in extracellular AK activity)) was 1.2.

`[H]/N=C(\N/C(=N/[H])NCCCCCCNC(=N)NC(=N)Nc1ccc(Cl)cc1)Nc1ccc(Cl)cc1` [Chlorhexidine, chlorhexidine, reference compound] was tested, and the fold induction at 50 µM (E. faecium; planktonic E. faecium, 50 μM final drug concentration, 384-well, cutoff for positive-scoring molecules 3-fold increase, read-out: AK-based Prestwick Library Screening Results: E. faecium (increase in extracellular AK activity)) was 4, the fold induction at 50 µM (K. pneumoniae; planktonic K. pneumoniae, 50 μM final drug concentration, 384-well, cutoff for positive-scoring molecules 3-fold increase, read-out: AK-based Prestwick Library Screening Results: K. pneumoniae (increase in extracellular AK activity)) was 18.8 and the fold induction at 50 µM ([2]; planktonic A. baumannii, 50 μM final drug concentration, 384-well, cutoff for positive-scoring molecules 3-fold increase, read-out: AK-based Prestwick Library Screening Results: A. baumannii (increase in extracellular AK activity)) was 12.3. The fold induction at 50 µM (E. cloacae; planktonic E. cloacae, 50 μM final drug concentration, 384-well, cutoff for positive-scoring molecules 3-fold increase, read-out: AK-based Prestwick Library Screening Results: E. cloacae (increase in extracellular AK activity)) was 1.8, the fold induction at 50 µM (E. coli; planktonic E. coli, 50 μM final drug concentration, 384-well, cutoff for positive-scoring molecules 3-fold increase, read-out: AK-based Prestwick Library Screening Results: E. coli (increase in extracellular AK activity)) was 50.1 and the fold induction at 50 µM (P. aeruginosa; planktonic P. aeruginosa, 50 μM final drug concentration, 384-well, cutoff for positive-scoring molecules 3-fold increase, read-out: AK-based Prestwick Library Screening Results: P. aeruginosa (increase in extracellular AK activity)) was 23.8.

With `CN[C@H](CC(C)C)C(=O)N[C@H]1C(=O)N[C@@H](CC(N)=O)C(=O)N[C@H]2C(=O)N[C@H]3C(=O)N[C@H](C(=O)N[C@H](C(=O)O)c4cc(O)cc(O)c4-c4cc3ccc4O)[C@H](O)c3ccc(c(Cl)c3)Oc3cc2cc(c3O[C@@H]2O[C@H](CO)[C@@H](O)[C@H](O)[C@H]2O[C@H]2C[C@](C)(N)[C@H](O)[C@H](C)O2)Oc2ccc(cc2Cl)[C@H]1O` [Vancomycin hydrochloride] the fold induction at 50 µM (E. faecium; read-out: AK-based Prestwick Library Screening Results, E. faecium (increase in extracellular AK activity)) was 1.5, the fold induction at 50 µM (K. pneumoniae; read-out: AK-based Prestwick Library Screening Results, K. pneumoniae (increase in extracellular AK activity)) was 0.8 and the fold induction at 50 µM ([2]; read-out: AK-based Prestwick Library Screening Results, A. baumannii (increase in extracellular AK activity)) was 1.1. It also gave a fold induction at 50 µM (E. cloacae; read-out: AK-based Prestwick Library Screening Results, E. cloacae (increase in extracellular AK activity)) of 0.9, a fold induction at 50 µM (E. coli; read-out: AK-based Prestwick Library Screening Results, E. coli (increase in extracellular AK activity)) of 1.2 and a fold induction at 50 µM (P. aeruginosa; read-out: AK-based Prestwick Library Screening Results, P. aeruginosa (increase in extracellular AK activity)) of 0.9.

Work on `CCCCC(CC)CNC(=N)NC(=N)NCCCCCCNC(=N)NC(=N)NCC(CC)CCCC` (centres unmarked) [Alexidine dihydrochloride] yielded a fold induction at 50 µM (E. faecium; [8]) of 7.4, a fold induction at 50 µM (K. pneumoniae; [9]) of 23.4 and a fold induction at 50 µM [2, 10] of 12.3. For the same compound, the fold induction at 50 µM (E. cloacae; [11]) was 1.5, the fold induction at 50 µM (E. coli; [12]) was 43.3 and the fold induction at 50 µM (P. aeruginosa; [13]) was 19.2.

Compound `CS(=O)(=O)c1ccc([C@@H](O)[C@@H](CF)NC(=O)C(Cl)Cl)cc1` [Florfenicol] has a fold induction at 50 µM (E. faecium; [8]) of 1, a fold induction at 50 µM (K. pneumoniae; [9]) of 0.3 and a fold induction at 50 µM [2, 10] of 1.2. For the same compound, the fold induction at 50 µM (E. cloacae; [11]) was 1.4, the fold induction at 50 µM (E. coli; 50 μM final drug concentration, […], read-out: AK-based Prestwick Library Screening Results, E. coli (fold increase in extracellular AK activity)) was 1.2 and the fold induction at 50 µM (P. aeruginosa; [13]) was 1.4.

With `CCCCCCCCCCCCCCCC[N+](C)(C)CCN(Cc1ccc(OC)cc1)c1ncccn1` [Thonzonium bromide] the fold induction at 50 µM (E. faecium; [8]) was 7.5, the fold induction at 50 µM (K. pneumoniae; [9]) was 4.7 and the fold induction at 50 µM [2, 10] was 5.6. The fold induction at 50 µM (E. cloacae; [11]) was 1.8, the fold induction at 50 µM (E. coli; [12]) was 3.2 and the fold induction at 50 µM (P. aeruginosa; [13]) was 1.5.

For `COc1cc(NC(C)CCCN)c2ncccc2c1` (centres unmarked) [Primaquine diphosphate], the fold induction at 50 µM (E. faecium; 50 μM final drug concentration, planktonic, cutoff for positive 3-fold increase, read-out: AK-based Prestwick Library Screening Results, E. faecium (fold increase in extracellular AK activity)) was 0.9, the fold induction at 50 µM ([1]; 50 μM final drug concentration, planktonic, cutoff for positive 3-fold increase, read-out: AK-based Prestwick Library Screening Results, S. aureus (fold increase in extracellular AK activity)) was 2.1 and the fold induction at 50 µM (K. pneumoniae; 50 μM final drug concentration, planktonic, cutoff for positive 3-fold increase, read-out: AK-based Prestwick Library Screening Results, K. pneumoniae (fold increase in extracellular AK activity)) was 1. For the same compound, the fold induction at 50 µM ([2]; 50 μM final drug concentration, planktonic, cutoff for positive 3-fold increase, read-out: AK-based Prestwick Library Screening Results, A. baumannii (fold increase in extracellular AK activity)) was 1.1, the fold induction at 50 µM (E. cloacae; 50 μM final drug concentration, planktonic, cutoff for positive 3-fold increase, read-out: AK-based Prestwick Library Screening Results, E. cloacae (fold increase in extracellular AK activity)) was 1.4 and the fold induction at 50 µM (P. aeruginosa; 50 μM final drug concentration, planktonic, cutoff for positive 3-fold increase, read-out: AK-based Prestwick Library Screening Results, P. aeruginosa (fold increase in extracellular AK activity)) was 1.

With `O=C(O)CCCC[C@@H]1SC[C@@H]2NC(=O)N[C@@H]21` [Biotin] the fold induction at 50 µM (E. faecium; [3]) was 0.9, the fold induction at 50 µM ([1]; planktonic S. aureus, 50 μM final drug concentration, cutoff for positive-scoring molecules 3-fold increase, read-out: AK-based Prestwick Library Screening Results, S. aureus (increase in extracellular AK activity)) was 1.4 and the fold induction at 50 µM (K. pneumoniae; [4]) was 0.6. It also gave a fold induction at 50 µM [2, 5] of 0.8, a fold induction at 50 µM (E. cloacae; [6]) of 0.8 and a fold induction at 50 µM (P. aeruginosa; [7]) of 0.7.
